Patent publication US6461997B1, “Triazole sulfones having herbicidal activity” (Monsanto Technology LLC, priority 1999, dated 2002)

Legend:
DATST (jimsonweed) = test: Pre-emergence herbicidal activity, warm season; format: in vivo, Datura stramonium; details: GR80 = lowest tested rate (300, 100, 30, 10 g/ha) with 80% or greater inhibition; approx. 14 days after treating; 30/21° C.
Method: (§1) Tables 5 to 8 summarize results of tests conducted as described below to determine the pre-emergence herbicidal activity, in the form of a GR80 value, of illustrative compounds of this invention. […] Compounds of the invention were typically applied at rates of 300, 100, 30, and 10 g/ha. Where herbicidal activity was evident but 80% inhibition was not achieved at the highest rate tested, an asterisk (*) is shown in the following tables.
(§2) The pre-emergence tests were conducted by the following procedure. Topsoil was sieved to pass through a 1.27 cm screen. Fertilizer was added to the topsoil and the mixture was then sterilized by heating. The topsoil mixture was placed in a pot and compacted to a depth of 1.0 to 1.25 cm from the top of the pot. Seeds of each of several monocotyledonous and dicotyledonous annual plant species were placed on top of the soil. Additional soil was subsequently placed over the seeds to level-fill the pot. A known amount of each test compound dissolved or suspended in an appropriate organic solvent was diluted with a 50:50 mix of acetone and water and applied to the surface of the soil. After treatment the plants were placed in a greenhouse where they received 0.64 cm of overhead irrigation. All subsequent watering consisted of a light overhead mist and/or subirrigation as needed for germination and growth. Tables 5 and 6 below relate to warm season plant species which were placed after pre-emergence treatment in a greenhouse with a 30/21° C. day/night temperature regime. Tables 7 and 8 below relates to cool season plant species placed after pre-emergence treatment in a greenhouse or growth chamber with an 18/13° C. day/night temperature regime.
(§3) Approximately 14 days after planting and treating, the plants were observed and herbicidal efficacy recorded as percent inhibition by comparison with untreated plants.
(§4) The plant species usually regarded as weeds which were utilized in the tests are identified in the tables below according to the following legend, in which “d” indicates a dicotyledonous species and “m” a monocotyledonous species. All monocotyledonous species included in the tests herein are grasses.

[1] = system: VERPE (creeping speedwell); test: Pre-emergence herbicidal activity, cool season; format: in vivo, Veronica persicaria; details: lowest tested rate with 80% or greater inhibition; rates 300, 100, 30, 10 g/ha; about 14 days
Method: as §1, §2, §3, §4

STEME (common chickweed) = test: Pre-emergence herbicidal activity, cool season; format: in vivo, Stellaria media; details: lowest tested rate with 80% or greater inhibition; rates 300, 100, 30, 10 g/ha; about 14 days
Method: as §1, §2, §3, §4

SINAR (wild mustard) = test: Pre-emergence herbicidal activity, cool season; format: in vivo, Sinapis arvensis; details: lowest tested rate with 80% or greater inhibition; rates 300, 100, 30, 10 g/ha; about 14 days
Method: as §1, §2, §3, §4

[2] = system: LAMPU (purple deadnettle); test: Pre-emergence herbicidal activity, cool season; format: in vivo, Lamium purpureum; details: lowest tested rate with 80% or greater inhibition; rates 300, 100, 30, 10 g/ha; about 14 days
Method: as §1, §2, §3, §4

POLCO (wild buckwheat) = test: Pre-emergence herbicidal activity, cool season; format: in vivo, Polygonum convolvulus; details: lowest tested rate with 80% or greater inhibition; rates 300, 100, 30, 10 g/ha; about 14 days
Method: as §1, §2, §3, §4

SASKR (russian thistle) = test: Pre-emergence herbicidal activity, cool season; format: in vivo, Salsola kali; details: lowest tested rate with 80% or greater inhibition; rates 300, 100, 30, 10 g/ha; about 14 days
Method: as §1, §2, §3, §4

[3] = system: GALAP (catchweed bedstraw); test: Pre-emergence herbicidal activity, cool season; format: in vivo, Galium aparine; details: lowest tested rate with 80% or greater inhibition; rates 300, 100, 30, 10 g/ha; about 14 days
Method: as §1, §2, §3, §4

SETFA (giant foxtail) = test: Pre-emergence herbicidal activity, warm season; format: in vivo, Setaria faberi; details: GR80 = lowest tested rate (300, 100, 30, 10 g/ha) with 80% or greater inhibition; approx. 14 days after treating; 30/21° C.
Method: as §1, §2, §3, §4

[4] = system: CHEAL (common lambsquarters); test: Pre-emergence herbicidal activity, warm season; format: in vivo, Chenopodium album; details: GR80 = lowest tested rate (300, 100, 30, 10 g/ha) with 80% or greater inhibition; approx. 14 days after treating; 30/21° C.
Method: as §1, §2, §3, §4

SOLNI (black nightshade) = test: Pre-emergence herbicidal activity, warm season; format: in vivo, Solanum nigrum; details: GR80 = lowest tested rate (300, 100, 30, 10 g/ha) with 80% or greater inhibition; approx. 14 days after treating; 30/21° C.
Method: as §1, §2, §3, §4

[5] = system: SORHA (johnsongrass (seedling)); test: Pre-emergence herbicidal activity, warm season; format: in vivo, Sorghum halepense; details: GR80 = lowest tested rate (300, 100, 30, 10 g/ha) with 80% or greater inhibition; approx. 14 days after treating; 30/21° C.
Method: as §1, §2, §3, §4

SETVI (green foxtail) = test: Pre-emergence herbicidal activity, cool season; format: in vivo, Setaria viridis; details: GR80 = lowest tested rate (300, 100, 30, 10 g/ha) with 80% or greater inhibition; approx. 14 days after treating; 18/13° C.
Method: as §1, §2, §3, §4

ECHCG (barnyardgrass) = test: Pre-emergence herbicidal activity, warm season; format: in vivo, Echinochloa crus-galli; details: GR80 = lowest tested rate (300, 100, 30, 10 g/ha) with 80% or greater inhibition; approx. 14 days after treating; 30/21° C.
Method: as §1, §2, §3, §4

[6] = system: AGSST (creeping bentgrass); test: Pre-emergence herbicidal activity, cool season; format: in vivo, Agrostis stolonifera; details: GR80 = lowest tested rate (300, 100, 30, 10 g/ha) with 80% or greater inhibition; approx. 14 days after treating; 18/13° C.
Method: as §1, §2, §3, §4

[7] = system: PANMI (wild proso millet); test: Pre-emergence herbicidal activity, warm season; format: in vivo, Panicum miliaceum; details: GR80 = lowest tested rate (300, 100, 30, 10 g/ha) with 80% or greater inhibition; approx. 14 days after treating; 30/21° C.
Method: as §1, §2, §3, §4

[8] = system: CIRAR (canada thistle (seedling)); test: Pre-emergence herbicidal activity, warm season; format: in vivo, Cirsium arvense; details: GR80 = lowest tested rate (300, 100, 30, 10 g/ha) with 80% or greater inhibition; approx. 14 days after treating; 30/21° C.
Method: as §1, §2, §3, §4

AMARE (redroot pigweed) = test: Pre-emergence herbicidal activity, warm season; format: in vivo, Amaranthus retroflexus; details: GR80 = lowest tested rate (300, 100, 30, 10 g/ha) with 80% or greater inhibition; approx. 14 days after treating; 30/21° C.
Method: as §1, §2, §3, §4

[9] = system: BRAPP (broadleaf signalgrass); test: Pre-emergence herbicidal activity, warm season; format: in vivo, Brachiaria platyphylla; details: GR80 = lowest tested rate (300, 100, 30, 10 g/ha) with 80% or greater inhibition; approx. 14 days after treating; 30/21° C.
Method: as §1, §2, §3, §4

DIGSA (large crabgrass) = test: Pre-emergence herbicidal activity, warm season; format: in vivo, Digitaria sanguinalis; details: GR80 = lowest tested rate (300, 100, 30, 10 g/ha) with 80% or greater inhibition; approx. 14 days after treating; 30/21° C.
Method: as §1, §2, §3, §4

ALOMY (blackgrass) = test: Pre-emergence herbicidal activity, cool season; format: in vivo, Alopecurus myosuroides; details: GR80 = lowest tested rate (300, 100, 30, 10 g/ha) with 80% or greater inhibition; approx. 14 days after treating; 18/13° C.
Method: as §1, §2, §3, §4

POROL (common purslane) = test: Pre-emergence herbicidal activity, warm season; format: in vivo, Portulaca oleracea; details: GR80 = lowest tested rate (300, 100, 30, 10 g/ha) with 80% or greater inhibition; approx. 14 days after treating; 30/21° C.
Method: as §1, §2, §3, §4

SORVU (shattercane) = test: Pre-emergence herbicidal activity, warm season; format: in vivo, Sorghum vulgare; details: GR80 = lowest tested rate (300, 100, 30, 10 g/ha) with 80% or greater inhibition; approx. 14 days after treating; 30/21° C.
Method: as §1, §2, §3, §4

Structure (SMILES)	Pre-emergence activity (GR80) DATST (DATST (jimsonweed)) [g/ha]	Pre-emergence activity GR80, VERPE [1]	Pre-emergence activity GR80, STEME (STEME (common chickweed))	Pre-emergence activity GR80, SINAR (SINAR (wild mustard))	Pre-emergence activity GR80, LAMPU [2]	Pre-emergence activity GR80, POLCO (POLCO (wild buckwheat))	Pre-emergence activity GR80, SASKR (SASKR (russian thistle))	Pre-emergence activity GR80, GALAP [3]	Pre-emergence activity (GR80) SETFA (SETFA (giant foxtail)) [g/ha]	Pre-emergence activity (GR80) CHEAL [4] [g/ha]	Pre-emergence activity (GR80) SOLNI (SOLNI (black nightshade)) [g/ha]	Pre-emergence activity (GR80) SORHA [5] [g/ha]	Pre-emergence activity (GR80) SETVI (SETVI (green foxtail)) [g/ha]	Pre-emergence activity (GR80) ECHCG (ECHCG (barnyardgrass)) [g/ha]	Pre-emergence activity (GR80) AGSST [6] [g/ha]	Pre-emergence activity (GR80) PANMI [7] [g/ha]	Pre-emergence activity (GR80) CIRAR [8] [g/ha]	Pre-emergence activity (GR80) AMARE (AMARE (redroot pigweed)) [g/ha]	Pre-emergence activity (GR80) ALOMY (ALOMY (blackgrass)) [g/ha]	Pre-emergence activity (GR80) POROL (POROL (common purslane)) [g/ha]	other results
O=C(N1CCOCC1)n1cnc(S(=O)(=O)C(F)(F)Cl)n1 [Example 84]	300	[empty]	[empty]	[empty]	300 g/ha	300 g/ha	[empty]	[empty]	–	–	–	–	–	–	–	–	–	–	–	–	–
O=C(N1CCCC1)n1cnc(S(=O)(=O)C(F)(F)C(F)F)n1 [Example 59]	–	[empty]	300 g/ha	[empty]	100 g/ha	300 g/ha	[empty]	100 g/ha	300	100	300	100	300	300	300	100	300	100	300	–	Pre-emergence activity (GR80) BRAPP [9]: 100 g/ha; Pre-emergence activity (GR80) DIGSA (DIGSA (large crabgrass)): 30 g/ha
CN(C(=O)n1cnc(S(=O)(=O)C(F)(F)C(F)F)n1)C1CCCCC1 [Example 67]	–	100 g/ha	[empty]	[empty]	[empty]	300 g/ha	[empty]	300 g/ha	300	100	–	300	300	300	100	100	–	300	–	300	–
CN(C)C(=O)n1cnc(S(=O)(=O)C(F)(F)C(F)F)n1 [Example 61]	–	100 g/ha	300 g/ha	300 g/ha	300 g/ha	[empty]	100 g/ha	100 g/ha	–	300	–	–	300	300	100	300	300	–	100	300	–
CCCN(CC)C(=O)n1cnc(S(=O)(=O)C(F)(F)Cl)n1 [Example 87]	–	100 g/ha	[empty]	[empty]	100 g/ha	[empty]	[empty]	300 g/ha	300	300	100	100	100	100	100	30	300	300	100	100	Pre-emergence activity (GR80) BRAPP [9]: 300 g/ha; Pre-emergence activity (GR80) DIGSA (DIGSA (large crabgrass)): 300 g/ha; Pre-emergence activity (GR80) SORVU (SORVU (shattercane)): 300 g/ha
CCSC(F)(F)S(=O)(=O)c1ncn(C(=O)N2CCOCC2)n1 [Example 48]	300	[empty]	300 g/ha	[empty]	[empty]	300 g/ha	[empty]	300 g/ha	–	–	–	–	–	–	–	–	–	–	–	–	–
CCN(CC)C(=S)n1cnc(S(=O)(=O)C(F)(F)C(F)F)n1 [Example 70]	–	[empty]	[empty]	300 g/ha	[empty]	300 g/ha	300 g/ha	[empty]	300	300	300	–	300	–	300	300	300	–	–	300	Pre-emergence activity (GR80) DIGSA (DIGSA (large crabgrass)): 300 g/ha
O=C(N1CCCC1)n1cnc(S(=O)(=O)C(F)(F)C(F)F)n1 [Example 71]	–	[empty]	300 g/ha	[empty]	300 g/ha	300 g/ha	[empty]	100 g/ha	300	30	300	300	100	–	100	300	300	300	300	300	–
CN(Cc1ccccc1)C(=O)n1cnc(S(=O)(=O)C(F)F)n1 [Example 33]	300	300 g/ha	100 g/ha	[empty]	30 g/ha	[empty]	300 g/ha	[empty]	–	–	–	–	–	–	300	300	–	–	–	–	–
